# Assay results reported in patent US10301257B2, “Use of acylsulfonamides for improving plant yield” (BAYER INTELLECTUAL PROPERTY GMBH, priority 2011, dated 2019).
# Key:
# Type in all cases: in vivo
# spring wheat [1] = assay: Field trial: grain yield of spring wheat, postemergence cyprosulfamide (CPA) + epoxiconazole (EPC)
# Text: (§1) The trials have been carried out under natural field conditions (plot trials, 10 square meter plots, 2-4 replications).
# (§2) The applications have been done with seed treatment, pre- or post-emergence treatments straight (alone, 1 application) or sequential treatments e.g. seed treatment followed by pre-emergence and/or post-emergence spray applications. The pre- or post-emergence applications were made with spray applications using 100-300 I/water per hectare. The growth stage of the crops species at the time of application are reported in the result tables. The dose rates of the herbicidal active ingredients applied alone respective in sequential application are also described in the result tables.
# (§3) The assessments have been done via visual ratings (0-100% scale) or counting. The trials have been harvested after crops reached the full maturity. After the harvest the total weight of kernels/seeds/beets per plot was measured. The results are reported as means over 2-4 replications. The time between applications and assessments or countings/harvest are described in the result tables as well.
# [2] = tested on: spring oilseed rape (canola); assay: Field trial: grain yield of spring oilseed rape (canola), postemergence CPA + tebuconazole (TBC)
# Text: as §1, §2, §3
# soybeans = assay: Field trial: grain yield of soybeans, postemergence application of Cyprosulfamide; settings: 100 g ai/ha
# Text: as §1, §2, §3
# corn (maize) = assay: Field trial: grain yield of corn (maize) after seed treatment with Cyprosulfamide; settings: for Difference(%) vs. UTC / Relative %: corn (maize) grain yield; for Relative %: UTC = 100%; for Yield (grain yield at harvest): corn (maize), seed treatment prior planting, 110 days after planting (short season variety)
# Text: (§4) The trials have been carried out under natural field conditions (plot trials, 10 square meter plots, 2-4 replications). The applications have been done with seed treatment, pre- or post-emergence treatments straight (alone, 1 application) or sequential treatments e.g. seed treatment followed by pre-emergence and/or post-emergence spray applications. The pre- or post-emergence applications were made with spray applications using 100-300 I/water per hectare. The growth stage of the crops species at the time of application are reported in the result tables. The dose rates of the herbicidal active ingredients applied alone respective in sequential application are also described in the result tables. The assessments have been done via visual ratings (0-100% scale) or counting. The trials have been harvested after crops reached the full maturity. After the harvest the total weight of kernels/seeds/beets per plot was measured. The results are reported as means over 2-4 replications. The time between applications and assessments or countings/harvest are described in the result tables as well. The active ingredients have been applied to the untreated, dry seeds together with a carrier. After a short period of time to let the seeds dry, they were ready to be sown in the pot or field using standard equipments.
# canola [3] = assay: Field trial: grain yield of canola, sequential application of Cyprosulfamide
# Text: as §4
# winter wheat [4] = assay: Field trial: grain yield (g/1000 kernel) of winter wheat, seed treatment with Cyprosulfamide; settings: 1 g ai/kg seed
# Text: as §4
# rice plants = assay: Field trial: germination and emergence of rice plants after seed treatment with Cyprosulfamide
# Text: as §4
# canola [5] = assay: Field trial: grain yield of canola, postemergence treatment with Cyprosulfamide
# Text: as §1, §2, §3
# corn [6] = assay: Field trial: grain yield of corn, postemergence application of Cyprosulfamide
# Text: as §1, §2, §3
# cotton = assay: Field trial: lint yield of cotton, postemergence application of Cyprosulfamide; settings: 100 g ai/ha
# Text: as §1, §2, §3
# corn [7] = assay: Field trial: grain yield of corn, sequential application of Cyprosulfamide
# Text: as §4
# spring wheat [8] = assay: Field trial: gluten content of spring wheat grains, postemergence application of Cyprosulfamide; settings: 35 days after application
# Text: as §1, §2, §3
# spring wheat [9] = assay: Field trial: grain yield of spring wheat, postemergence application of Cyprosulfamide
# Text: as §1, §2, §3
# rice = assay: Field trial: grain yield of rice, sequential application of Cyprosulfamide
# Text: as §4
# winter wheat [10] = assay: Field trial: grain yield of winter wheat, preemergence application of Cyprosulfamide
# Text: as §1, §2, §3
# sugarbeet = assay: Field trial: sugar and beet yield of sugarbeet, sequential application of Cyprosulfamide; settings: 0.15 mg ai/seed fb 3 × 50 g ai/ha post, 44 days after last postemergence treatment
# Text: as §4
# corn [11] = assay: Field trial: biomass yield and plant density of corn, sequential application of Cyprosulfamide; settings: 0.15 g ai/kg seed fb 3 × 50 g ai/ha post, 98 days after emergence
# Text: as §4
structure (smiles),measurement,setting,value
"Fc1ccc([C@]2(Cn3cncn3)O[C@H]2c2ccccc2Cl)cc1 (racemic) [EPC, epoxiconazole]",Difference(%) vs. UTC,"spring wheat [1]; spring wheat grain yield, EPC 125, CPA + EPC 100 + 125 g ai/ha",+9.7%
same,Relative %,"spring wheat [1]; spring wheat grain yield, EPC 125, CPA + EPC 100 + 125 g ai/ha, UTC = 100%",109.7%^
same,Yield (grain yield at harvest),"spring wheat [1]; spring wheat, post-emergence spring, flag leaf sheath opening, EPC 125 g ai/ha, CPA + EPC 100 + 125 g ai/ha, 55 days after application, UTC 1.84",2.02 t/ha
"CC(C)(C)C(O)(CCc1ccc(Cl)cc1)Cn1cncn1 (centres unmarked) [TBC, tebuconazole]",Difference(%) vs. UTC,"[2]; canola grain yield, TBC 150, CPA + TBC 100 + 150 g ai/ha",+1.8%
same,Relative %,"[2]; canola grain yield, TBC 150, CPA + TBC 100 + 150 g ai/ha, UTC = 100%",101.8%
same,Yield (grain yield at harvest),"[2]; spring oilseed rape (canola), post-emergence spring, beginning of flowering, TBC 150 g ai/ha, CPA + TBC 100 + 150 g ai/ha, 92 days after application, UTC 3.91",3.91 t/ha
"COc1ccccc1C(=O)NS(=O)(=O)c1ccc(C(=O)NC2CC2)cc1 [Cyprosulfamide, cyprosulfamide]",Difference(%) vs. UTC,soybeans; soybean grain yield,+5%
same,Relative,"soybeans; soybean grain yield, UTC = 100%",105%
same,Yield (grain yield at harvest),"soybeans; soybeans, postemergence preflowering (GS 60), 45 days after application",2.78 t/ha
same,Difference(%) vs. UTC,corn (maize); 0.15 mg ai/seed,+12%
same,Relative %,corn (maize); 0.15 mg ai/seed,112%
same,Difference(%) vs. UTC,corn (maize); 0.225 mg ai/seed,+13%
same,Relative %,corn (maize); 0.225 mg ai/seed,113%
same,Yield (grain yield at harvest),corn (maize); 0.15 mg ai/seed,8.32 t/ha
same,Yield (grain yield at harvest),corn (maize); 0.225 mg ai/seed,8.39 t/ha
same,Difference(%) vs. UTC,"canola [3]; canola grain yield, sequential application",+24%
same,Relative,"canola [3]; canola grain yield, sequential application, UTC = 100%",124%
same,Yield (grain yield at harvest),"canola [3]; canola, 0.5 g ai/kg seed fb 3 × 50 g ai/ha post (4-6 leaves, stem elongation, beginning of flowering), 63 days after application",3.47 t/ha
same,Difference(%) vs. UTC,winter wheat [4]; winter wheat g/1000 kernel,+8%
same,Relative,"winter wheat [4]; winter wheat g/1000 kernel, UTC = 100%",108%
same,Yield (grain yield at harvest),"winter wheat [4]; winter wheat, seed treatment prior planting, 290 days after planting",39.2 g/1000 kernel
same,Difference(%) vs. UTC,"rice plants; rice plants/10 m^2, 0.5 g ai/kg seed",+23%
same,Relative,"rice plants; rice plants/10 m^2, 0.5 g ai/kg seed, UTC = 100%",123%
same,plants/10 m^2 (germination and emergence),"rice plants; rice, seed treatment 0.5 g ai/kg seed, 12 days after emergence",208 plants/10 m^2
same,Difference(%) vs. UTC,"canola [5]; canola grain yield, 100 g ai/ha postemergence",+19%
same,Relative,"canola [5]; canola grain yield, 100 g ai/ha postemergence, UTC = 100%",119%
same,Yield (grain yield at harvest),"canola [5]; canola, postemergence GS 52 pre flowering, 100 g ai/ha, 63 days after treatment",2.62 t/ha
same,Difference(%) vs. UTC,"corn [6]; corn grain yield, 100 g ai/ha postemergence",+28%
same,Relative,"corn [6]; corn grain yield, 100 g ai/ha postemergence, UTC = 100%",128%
same,Yield (grain yield at harvest),"corn [6]; corn, postemergence at 6-8 leaves, 100 g ai/ha, 130 days after application",5.60 t/ha
same,Difference(%) vs. UTC,cotton; cotton lint yield,+16%
same,Relative,"cotton; cotton lint yield, UTC = 100%",116%
same,Yield t/ha (lint),"cotton; cotton lints at harvest, postemergence preflowering (GS 55), 90 days after application",0.254 t/ha
same,Difference(%) vs. UTC,"corn [7]; corn grain yield, sequential application",+38%
same,Relative,"corn [7]; corn grain yield, sequential application, UTC = 100%",138%
same,Yield (grain yield at harvest),"corn [7]; corn, 0.15 g ai/kg seed fb 3 × 50 g ai/ha post (2-4 leaves, 6-8 leaves, preflowering), 98 days after emergence",14.1 t/ha
same,Yield Relative: relative gluten content in harvested grains,"spring wheat [8]; 100 g ai/ha at ear emergence, UTC = 100%",109%
same,Yield: gluten content (absolute) in harvested grains,"spring wheat [8]; postemergence at ear emergence, 100 g ai/ha",30.9
same,Difference(%) vs. UTC,"spring wheat [9]; spring wheat grain yield, 100 g ai/ha postemergence",+8%
same,Yield (grain yield at harvest),"spring wheat [9]; spring wheat, postemergence at beginning of emergence of the ears (GS49), 100 g ai/ha, 48 days after application",3.83 t/ha
same,Difference(%) vs. UTC,"rice; rice grain yield, sequential application",+5%
same,Relative,"rice; rice grain yield, sequential application, UTC = 100%",105%
same,Yield (grain yield at harvest),"rice; rice, 0.5 g ai/kg seed fb 3 × 50 g ai/ha post, 75 days after last application",5.74 t/ha
same,Difference(%) vs. UTC,"winter wheat [10]; winter wheat grain yield, 100 g ai/ha preemergence",+11%
same,Relative %,"winter wheat [10]; winter wheat grain yield, 100 g ai/ha preemergence, UTC = 100%",111%
same,Yield (grain yield at harvest),"winter wheat [10]; winter wheat, preemergence autumn, 100 g ai/ha, 247 days after application",5.88 t/ha
same,Yield of beets (storage root/body) by weight at harvest,sugarbeet; UTC 59.3,61.3 t/ha
same,Sugar Yield at harvest,sugarbeet; UTC 5778,6110 kg/ha
same,Yield: Biomass yield at harvest,corn [11]; UTC 6.0,7.5 t/ha
same,Yield: Plant density at harvest,corn [11]; UTC 14,17.3 plants/sqm
